Earlier results in patent US20200206183A1, “SYSTEMS, METHODS, AND FORMULATIONS FOR TREATING CANCER” (Research Cancer Institute of America, priority 2011, published 2020).

Legend:
tyrosine kinase = conditions: measured in 11 subjects
[1] = tested on: patients who had cancer deemed no longer treatable by conventional methods

Compound	Toxicity (patients; oral doses up to 36 grams per day)	Patients with stable disease (patients; stable disease for more than 6 months while on the drug, one study)	Subjects with a decrease in tyrosine kinase levels (tyrosine kinase)	Dose concluded for further study ([1]; intravenous)	Suppression as defined by the radiological criteria of WHO ([1]; up to 1700 mg/m2 intravenous for about 3 weeks, 50 patients)	Patients with sustained decreases in unique cancer markers ([1]; up to 1700 mg/m2 intravenous, 50 patients)
sodium phenylbutyrate [SPB]	minimal toxicity	25%	–	–	–	–
O=c1c(O)c(-c2ccc(O)c(O)c2)oc2cc(O)cc(O)c12 [quercetin]	–	–	9 subjects	≤ 1400 mg/m2	None of the patients achieved suppression	two showed sustained decreases
